Data taken from patent publication US20240285727A1, “NOVEL THERAPEUTIC PEPTIDES FOR NEURODEGENERATION” (UNIVERSITY OF SOUTHERN CALIFORNIA, priority 2021, published 2024).

The substances below were run on SHSY5Y (assay: Analogue screening assay, measured by MTT). Conditions: as a percentage compared to SHMOOSE (SHMOOSE activity as 100%).
Format: cell-based
Source text: FIG. 10 depicts an analogue screening assay, measured by MTT. Top: each bar represents a fragment (25-amino acid in length) of SHMOOSE. Bottom: each bar represents a phosphomimetic fragment (25-amino acid in length) of SHMOOSE. Cell model is SHSY5Y. The Inventors made 103 analogues/derivatives (see Table 1).
The Inventors made 103 analogues (Table 1). Referring to FIG. 10, in the top figure, each bar represents a 25-amino acid fragment of the SHMOOSE peptide. […] The sequence length of the analogue is 14 amino acids and 3 different analysis windows of the analogue, each having 11 amino acids, were characterized. […]

Row | Substance | % Efficacy
1 | 1 (MPPCLTTWLSQLLKDNSYPLVLGPK) [compound 1] | 62.23%
2 | 2 (PPCLTTWLSQLLKDNSYPLVLGPKN) [compound 2] | 37.99%
3 | 3 (PCLTTWLSQLLKDNSYPLVLGPKNF) [compound 3] | 115.35%
4 | 4 (CLTTWLSQLLKDNSYPLVLGPKNFG) [compound 4] | 12.47%
5 | 5 (LTTWLSQLLKDNSYPLVLGPKNFGA) [compound 5] | −13.61%
6 | 6 (TTWLSQLLKDNSYPLVLGPKNFGAT) [compound 6] | −42.74%
7 | 7 (TWLSQLLKDNSYPLVLGPKNFGATP) [compound 7] | −113.24%
8 | 8 (WLSQLLKDNSYPLVLGPKNFGATPN) [compound 8] | −3.65%
9 | 9 (LSQLLKDNSYPLVLGPKNFGATPNK) [compound 9] | −82.17%
10 | 10 (SQLLKDNSYPLVLGPKNFGATPNKS) [compound 10] | −107.19%
11 | 11 (QLLKDNSYPLVLGPKNFGATPNKSN) [compound 11] | −85.19%
12 | 12 (LLKDNSYPLVLGPKNFGATPNKSNN) [compound 12] | −97.85%
13 | 13 (LKDNSYPLVLGPKNFGATPNKSNNH) [compound 13] | −58.60%
14 | 14 (KDNSYPLVLGPKNFGATPNKSNNHA) [compound 14] | −147.96%
15 | 15 (DNSYPLVLGPKNFGATPNKSNNHAH) [compound 15] | 51.51%
16 | 16 (NSYPLVLGPKNFGATPNKSNNHAHY) [compound 16] | −79.03%
17 | 17 (SYPLVLGPKNFGATPNKSNNHAHYY) [compound 17] | −195.89%
18 | 18 (YPLVLGPKNFGATPNKSNNHAHYYN) [compound 18] | −133.09%
19 | 19 (PLVLGPKNFGATPNKSNNHAHYYNH) [compound 19] | −191.36%
20 | 20 (LVLGPKNFGATPNKSNNHAHYYNHP) [compound 20] | −248.54%
21 | 21 (VLGPKNFGATPNKSNNHAHYYNHPN) [compound 21] | −50.24%
22 | 22 (LGPKNFGATPNKSNNHAHYYNHPNP) [compound 22] | −140.81%
23 | 23 (GPKNFGATPNKSNNHAHYYNHPNPD) [compound 23] | −210.91%
24 | 24 (PKNFGATPNKSNNHAHYYNHPNPDF) [compound 24] | −185.28%

Row | Substance | % Efficacy
25 | 25 (KNFGATPNKSNNHAHYYNHPNPDFP) [compound 25] | −8.52%
26 | 26 (NFGATPNKSNNHAHYYNHPNPDFPN) [compound 26] | −232.44%
27 | 27 (FGATPNKSNNHAHYYNHPNPDFPNS) [compound 27] | −226.16%
28 | 28 (GATPNKSNNHAHYYNHPNPDFPNSP) [compound 28] | −229.42%
29 | 29 (ATPNKSNNHAHYYNHPNPDFPNSPH) [compound 29] | −262.37%
30 | 30 (TPNKSNNHAHYYNHPNPDFPNSPHP) [compound 30] | −367.82%
31 | 31 (PNKSNNHAHYYNHPNPDFPNSPHPY) [compound 31] | −477.36%
32 | 32 (NKSNNHAHYYNHPNPDFPNSPHPYH) [compound 32] | −145.56%
33 | 33 (KSNNHAHYYNHPNPDFPNSPHPYHP) [compound 33] | −119.66%
34 | 34 (SNNHAHYYNHPNPDFPNSPHPYHPR) [compound 34] | −195.91%
35 | 35 (GPKNFGATPNKSNNHAHYYNHPNPN) [compound 35] | 8.68%
36 | 36 (PKNFGATPNKSNNHAHYYNHPNPNF) [compound 36] | −120.40%
37 | 37 (KNFGATPNKSNNHAHYYNHPNPNFP) [compound 37] | −227.50%
38 | 38 (NFGATPNKSNNHAHYYNHPNPNFPN) [compound 38] | −196.67%
39 | 40 (GATPNKSNNHAHYYNHPNPNFPNSP) [compound 40] | −302.11%
40 | 41 (ATPNKSNNHAHYYNHPNPNFPNSPH) [compound 41] | −188.45%
41 | 42 (TPNKSNNHAHYYNHPNPNFPNSPHP) [compound 42] | −392.68%
42 | 45 (KSNNHAHYYNHPNPNFPNSPHPYHP) [compound 45] | −292.14%
43 | 46 (SNNHAHYYNHPNPNFPNSPHPYHPR) [compound 46] | −59.27%
44 | 47 (MPPCLDDWLDQLLKDNDDPLVLGPK) [compound 47] | −150.17%
45 | 48 (PPCLDDWLDQLLKDNDDPLVLGPKN) [compound 48] | −159.22%
46 | 49 (PCLDDWLDQLLKDNDDPLVLGPKNF) [compound 49] | −168.90%
47 | 50 (CLDDWLDQLLKDNDDPLVLGPKNFG) [compound 50] | −340.42%
48 | 51 (LDDWLDQLLKDNDDPLVLGPKNFGA) [compound 51] | −132.69%

Row | Substance | % Efficacy
49 | 52 (DDWLDQLLKDNDDPLVLGPKNFGAD) [compound 52] | −38.98%
50 | 53 (DWLDQLLKDNDDPLVLGPKNFGADP) [compound 53] | −76.54%
51 | 54 (WLDQLLKDNDDPLVLGPKNFGADPN) [compound 54] | −45.99%
52 | 55 (LDQLLKDNDDPLVLGPKNFGADPNK) [compound 55] | −38.64%
53 | 56 (DQLLKDNDDPLVLGPKNFGADPNKD) [compound 56] | −93.30%
54 | 57 (QLLKDNDDPLVLGPKNFGADPNKDN) [compound 57] | −1.36%
55 | 58 (LLKDNDDPLVLGPKNFGADPNKDNN) [compound 58] | −58.59%
56 | 60 (KDNDDPLVLGPKNFGADPNKDNNHA) [compound 60] | −146.91%
57 | 62 (NDDPLVLGPKNFGADPNKDNNHAHD) [compound 62] | −250.35%
58 | 63 (DDPLVLGPKNFGADPNKDNNHAHDD) [compound 63] | −216.49%
59 | 64 (DPLVLGPKNFGADPNKDNNHAHDDN) [compound 64] | −254.41%
60 | 65 (PLVLGPKNFGADPNKDNNHAHDDNH) [compound 65] | −163.31%
61 | 66 (LVLGPKNFGADPNKDNNHAHDDNHP) [compound 66] | −157.61%
62 | 67 (VLGPKNFGADPNKDNNHAHDDNHPN) [compound 67] | −231.08%
63 | 68 (LGPKNFGADPNKDNNHAHDDNHPNP) [compound 68] | −144.36%
64 | 69 (GPKNFGADPNKDNNHAHDDNHPNPD) [compound 69] | −184.35%
65 | 70 (PKNFGADPNKDNNHAHDDNHPNPDF) [compound 70] | −157.35%
66 | 71 (KNFGADPNKDNNHAHDDNHPNPDFP) [compound 71] | −113.32%
67 | 72 (NFGADPNKDNNHAHDDNHPNPDFPN) [compound 72] | −28.57%
68 | 73 (FGADPNKDNNHAHDDNHPNPDFPND) [compound 73] | −306.02%
69 | 74 (GADPNKDNNHAHDDNHPNPDFPNDP) [compound 74] | −228.29%
70 | 75 (ADPNKDNNHAHDDNHPNPDFPNDPH) [compound 75] | −157.10%
71 | 76 (DPNKDNNHAHDDNHPNPDFPNDPHP) [compound 76] | −184.63%
72 | 78 (NKDNNHAHDDNHPNPDFPNDPHPDH) [compound 78] | −240.90%

Row | Substance | % Efficacy
73 | 79 (KDNNHAHDDNHPNPDFPNDPHPDHP) [compound 79] | −183.31%
74 | 80 (DNNHAHDDNHPNPDFPNDPHPDHPR) [compound 80] | −214.13%
75 | 81 (GPKNFGADPNKDNNHAHDDNHPNPN) [compound 81] | −172.67%
76 | 82 (PKNFGADPNKDNNHAHDDNHPNPNF) [compound 82] | −146.18%
77 | 84 (NFGADPNKDNNHAHDDNHPNPNFPN) [compound 84] | −84.90%
78 | 85 (FGADPNKDNNHAHDDNHPNPNFPND) [compound 85] | −476.83%
79 | 86 (GADPNKDNNHAHDDNHPNPNFPNDP) [compound 86] | −62.75%
80 | 88 (DPNKDNNHAHDDNHPNPNFPNDPHP) [compound 88] | −84.19%
81 | 90 (NKDNNHAHDDNHPNPNFPNDPHPDH) [compound 90] | −226.81%
82 | 91 (KDNNHAHDDNHPNPNFPNDPHPDHP) [compound 91] | −104.32%
83 | 92 (DNNHAHDDNHPNPNFPNDPHPDHPR) [compound 92] | −85.47%
84 | 97 (MPPCITTWLSQLLKDNSYPLVLGPKNFGATPNKSNNHAHYYNHPNPDFPNSPHPYHPR) [compound 97] | −1.709%
85 | 98 (MPPCITTWISQLLKDNSYPLVLGPKNFGATPNKSNNHAHYYNHPNPDFPNSPHPYHPR) [compound 98] | 1.709%
86 | 99 (MPPCITTWISQILKDNSYPLVLGPKNFGATPNKSNNHAHYYNHPNPDFPNSPHPYHPR) [compound 99] | −7.692%
87 | 100 (MPPCITTWISQIIKDNSYPLVLGPKNFGATPNKSNNHAHYYNHPNPDFPNSPHPYHPR) [compound 100] | 4.274%
88 | 101 (MPPCLTTWISQIIKDNSYPLVLGPKNFGATPNKSNNHAHYYNHPNPDFPNSPHPYHPR) [compound 101] | −10.26%
89 | 102 (MPPCLTTWLSQIIKDNSYPLVLGPKNFGATPNKSNNHAHYYNHPNPDFPNSPHPYHPR) [compound 102] | −25.64%
90 | 103 (MPPCLTTWLSQLIKDNSYPLVLGPKNFGATPNKSNNHAHYYNHPNPDFPNSPHPYHPR) [compound 103] | 86.32%
91 | 104 (MPSCLTTWLSQLLKDNSYPLVLGPKNFGATPNKSNNHAHYYNHPNPDFPNSPHPYHPR) [compound 104] | 82.05%
92 | 105 (MPSCLTTWLSSLLKDNSYPLVLGPKNFGATPNKSNNHAHYYNHPNPDFPNSPHPYHPR) [compound 105] | 44.44%
93 | 106 (MPSCLTTWLSSLLSDNSYPLVLGPKNFGATPNKSNNHAHYYNHPNPDFPNSPHPYHPR) [compound 106] | −14.53%
